Results taken from patent US20230339981A1, “KRAS G12D MODULATING COMPOUNDS” (priority 2022, published 2023).

Key:
GDP-loaded KRAS G12D = GDP-loaded KRAS G12D (Homo sapiens (Human), UniProt P01116, G12D); test: KRAS G12D (GDP) biochemical assay (TR-FRET probe displacement); assay type: binding; conditions: 2 hours
Summary of the method: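 TR-FRET probe displacement: 1:3 DMSO serial dilutions pre-incubated 30 min with GDP-bound KRAS G12D, followed by Eu-streptavidin/probe for 2 h at room temperature (Hepes pH 7.4, NaCl, MgCl2, Tween-20 buffer). IC50 defined as concentration halving TR-FRET ratio, from sigmoidal dose-response fit.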

GP2D (KRAS G12D) cells = test: 2D cell viability assay (CellTiter-Glo); assay type: cell-based; conditions: GP2d, 96 h, 4 days
Summary of the method: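 Viability was read by CellTiter-Glo after 4 days at 37 °C of 2D culture of KRAS G12D GP2D cells (1000/well, RPMI, 10% FBS) on pre-spotted threefold compound dilutions. EC50 was fitted with a sigmoidal dose-response model as the point of half-maximal luminescence loss.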

AsPC-1 (KRAS G12D) cells = test: 3D cell viability assay (spheroids, CellTiter-Glo 3D); assay type: cell-based; conditions: Homo sapiens, ASPC1, 96 h, AsPC-1 cells, 3D spheroids, 4 days
Method: Example C. 3D Cell Viability Assay
Compounds were tested in a 384-well format for their ability to inhibit the viability of AsPC-1 (KRAS G12D) cells in 3D assays. On day 0, 1000 cells/well (80 μL volume per well) in DMEM with 10% FBS, and Penicillin-Streptomycin-Glutamine were plated in 384-well Ultra-Low Attachment Spheroid Microplates (Corning, Catalog #3830) on the BioTEK EL406 liquid dispenser with a 5 μL dispensing cassette (BioTek 7170011). The plates were incubated at 37° C., 5% CO2 for 3 days to allow spheroid formation. On day 3, compounds were serially diluted (1:3) in DMSO. The Biomek FX was used to add 400 nL of test molecule per well. The plates were incubated at 37° C., 5% CO2 for 4 days before addition of CellTiter-Glo 3D (Promega, Catalog #9683) reagent and measurement of luminescence signal. EC50 values were defined as the compound concentration that causes a 50% decrease in luminescence signal and were calculated using a sigmoidal dose-response model to generate curve fits.

Chain of GDP-loaded KRAS G12D (P01116-2 other isoform, or with tags, fused parts or gaps G12D): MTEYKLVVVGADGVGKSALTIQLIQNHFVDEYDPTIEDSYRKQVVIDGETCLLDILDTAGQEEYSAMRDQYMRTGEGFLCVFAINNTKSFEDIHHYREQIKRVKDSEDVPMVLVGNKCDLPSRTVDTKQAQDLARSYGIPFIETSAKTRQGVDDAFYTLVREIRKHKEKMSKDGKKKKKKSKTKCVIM

Work on C#Cc1c(F)ccc2cccc(-c3nc4c5c(nc(OC[C@@]67CCCN6C[C@H](F)C7)nc5c3F)N3C[C@H]5CC[C@H](N5)[C@H]3CC[C@H]4C)c12 [Example 171, (4R,6aR,7S,10R)-2-(8-ethynyl-7-fluoronaphthalen-1-yl)-1-fluoro-13-(((2R,7aS)-2-fluorotetrahydro-1H-pyrrolizin-7a(5H)-yl)methoxy)-4-methyl-5,6,6a,7,8,9,10,11-octahydro-4H-3,11a,12,14,15-pentaaza-7,10-methanocyclohepta[4,5]cycloocta[1,2,3-de]naphthalene] yielded an IC50 (GDP-loaded KRAS G12D) of less than 0.1 nM, an EC50 (GP2D (KRAS G12D) cells) of 1.9 nM and an EC50 (AsPC-1 (KRAS G12D) cells) of 120 nM.
In the case of C#Cc1c(F)ccc2cc(O)cc(-c3nc4c5c(nc(OCC6(CN7CCC(OC(F)(F)F)CC7)CC6)nc5c3F)N3C[C@H]5CC[C@H](N5)[C@H]3CC4)c12 [Example 106, 5-ethynyl-6-fluoro-4-((5aR,6S,9R)-1-fluoro-12-((1-((4-(trifluoromethoxy)piperidin-1-yl)methyl)cyclopropyl)methoxy)-4,5,5a,6,7,8,9,10-octahydro-3,10a,11,13,14-pentaaza-6,9-methanonaphtho[1,8-ab]heptalen-2-yl)naphthalen-2-ol], the IC50 (GDP-loaded KRAS G12D) is reported as 0.2 nM, the EC50 (GP2D (KRAS G12D) cells) is reported as 1.9 nM and the EC50 (AsPC-1 (KRAS G12D) cells) is reported as 8.2 nM.
C#Cc1c(F)ccc2cccc(-c3nc4c5c(nc(OC[C@@]67CCCN6[C@H](COC(C)(C(F)(F)F)C(F)(F)F)CC7)nc5c3F)N3C[C@H]5CC[C@H](N5)[C@H]3CC4)c12 [Example 112, (5aR,6S,9R)-2-(8-ethynyl-7-fluoronaphthalen-1-yl)-1-fluoro-12-(((3S,7aS)-3-(((1,1,1,3,3,3-hexafluoro-2-methylpropan-2-yl)oxy)methyl)tetrahydro-1H-pyrrolizin-7a(5H)-yl)methoxy)-4,5,5a,6,7,8,9,10-octahydro-3,10a,11,13,14-pentaaza-6,9-methanonaphtho[1,8-ab]heptalene] showed an IC50 (GDP-loaded KRAS G12D) of 0.3 nM, an EC50 (GP2D (KRAS G12D) cells) of 41 nM and an EC50 (AsPC-1 (KRAS G12D) cells) of 270 nM.
C#Cc1c(F)ccc2cc(O)cc(-c3nc4c5c(nc(OC[C@@]67CCCN6[C@H](COc6ccnc(C(F)(F)F)n6)CC7)nc5c3F)N3C[C@H]5CC[C@H](N5)[C@H]3CC4)c12 [Example 148, 5-ethynyl-6-fluoro-4-((5aR,6S,9R)-1-fluoro-12-(((3S,7aS)-3-(((2-(trifluoromethyl)pyrimidin-4-yl)oxy)methyl)tetrahydro-1H-pyrrolizin-7a(5H)-yl)methoxy)-4,5,5a,6,7,8,9,1O-octahydro-3,10a,11,13,14-pentaaza-6,9-methanonaphtho[1,8-ab]heptalen-2-yl)naphthalen-2-ol] was tested, and the IC50 (GDP-loaded KRAS G12D) was 0.1 nM, the EC50 (GP2D (KRAS G12D) cells) was 0.7 nM and the EC50 (AsPC-1 (KRAS G12D) cells) was 7.7 nM.
For Oc1cc(-c2nc3c4c(nc(OC[C@@]56CCCN5C[C@@]5(CC5(F)F)C6)nc4c2F)N2C[C@H]4CC[C@H](N4)[C@H]2CC3)c2c(OC(F)(F)F)c(F)ccc2c1 [Example 99, 4-((5aR,6S,9R)-12-(((1S,7a'S)-2,2-difluorodihydro-1′H,3′H-spiro[cyclopropane-1,2′-pyrrolizin]-7a′(5′H)-yl)methoxy)-1-fluoro-4,5,5a,6,7,8,9,10-octahydro-3,10a,11,13,14-pentaaza[6,9]methanonaphtho[1,8-ab]heptalen-2-yl)-6-fluoro-5-(trifluoromethoxy)naphthalen-2-ol], the IC50 (GDP-loaded KRAS G12D) was 0.6 nM, the EC50 (GP2D (KRAS G12D) cells) was 7.4 nM and the EC50 (AsPC-1 (KRAS G12D) cells) was 110 nM.
Work on C#Cc1c(F)ccc2cccc(-c3nc4c5c(nc(OC[C@@]67C[C@@H](F)CN6CC6(CC6)C7)nc5c3F)N3C[C@H]5CC[C@H](N5)[C@H]3CC4)c12 [Example 113, (5aR,6S,9R)-2-(8-ethynyl-7-fluoronaphthalen-1-yl)-1-fluoro-12-(((6′R,7a′R)-6′-fluorodihydro-1′H,3′H-spiro[cyclopropane-1,2′-pyrrolizin]-7a′(5′H)-yl)methoxy)-4,5,5a,6,7,8,9,10-octahydro-3,10a,11,13,14-pentaaza-6,9-methanonaphtho[1,8-ab]heptalene] yielded an IC50 (GDP-loaded KRAS G12D) of 0.2 nM, an EC50 (GP2D (KRAS G12D) cells) of 7.3 nM and an EC50 (AsPC-1 (KRAS G12D) cells) of 57 nM.
Compound C#Cc1c(F)ccc2cccc(-c3nc4c5c(nc(OC[C@@]67CCCN6C[C@H](F)C7)nc5c3F)N3C[C@H]5CC[C@H](N5)[C@H]3CC4)c12 [Example 23, (5aR,6S,9R)-2-(8-ethynyl-7-fluoronaphthalen-1-yl)-1-fluoro-12-(((2R,7aS)-2-fluorotetrahydro-1H-pyrrolizin-7a(5H)-yl)methoxy)-4,5,5a,6,7,8,9,10-octahydro-3,10a,11,13,14-pentaaza-6,9-methanonaphtho[1,8-ab]heptalene] has an IC50 (GDP-loaded KRAS G12D) of 1 nM, an EC50 (GP2D (KRAS G12D) cells) of 9 nM and an EC50 (AsPC-1 (KRAS G12D) cells) of 31 nM.
C#Cc1c(F)ccc2cc(O)cc(-c3nc4c5c(nc(OCC6(CN7CCC8(CC7)CC8)CC6)nc5c3F)N3C[C@H]5CC[C@H](N5)[C@H]3CC4)c12 [Example 177, 4-((5aR,6S,9R)-12-((1-((6-azaspiro[2.5]octan-6-yl)methyl)cyclopropyl)methoxy)-1-fluoro-4,5,5a,6,7,8,9,10-octahydro-3,10a,11,13,14-pentaaza[6,9]methanonaphtho[1,8-ab]heptalen-2-yl)-5-ethynyl-6-fluoronaphthalen-2-ol] gave an EC50 (GP2D (KRAS G12D) cells) of 1.5 nM and an EC50 (AsPC-1 (KRAS G12D) cells) of 20 nM.
Work on C#Cc1c(F)ccc2cc(O)cc(-c3nc4c5c(nc(OCC6(CN7CCC(Oc8ccnc(C(F)(F)F)n8)CC7)CC6)nc5c3F)N3C[C@H]5CC[C@H](N5)[C@H]3CC4)c12 [Example 180, 5-ethynyl-6-fluoro-4-((5aR,6S,9R)-1-fluoro-12-((1-((4-((2-(trifluoromethyl)pyrimidin-4-yl)oxy)piperidin-1-yl)methyl)cyclopropyl)methoxy)-4,5,5a,6,7,8,9,10-octahydro-3,10a,11,13,14-pentaaza-6,9-methanonaphtho[1,8-ab]heptalen-2-yl)naphthalen-2-ol] yielded an IC50 (GDP-loaded KRAS G12D) of 0.8 nM and an EC50 (GP2D (KRAS G12D) cells) of 5.1 nM.
With C#Cc1c(F)ccc2cccc(-c3nc4c5c(nc(OC[C@@]67CCCN6[C@H](COC(C(F)(F)F)(C(F)(F)F)C(F)(F)F)CC7)nc5c3F)N3C[C@H]5CC[C@H](N5)[C@H]3CC4)c12 [Example 187, (5aR,6S,9R)-2-(8-ethynyl-7-fluoronaphthalen-1-yl)-1-fluoro-12-(((3S,7aS)-3-(((1,1,1,3,3,3-hexafluoro-2-(trifluoromethyl)propan-2-yl)oxy)methyl)tetrahydro-1H-pyrrolizin-7a(5H)-yl)methoxy)-4,5,5a,6,7,8,9,10-octahydro-3,10a,11,13,14-pentaaza-6,9-methanonaphtho[1,8-ab]heptalene] the IC50 (GDP-loaded KRAS G12D) was 0.9 nM and the EC50 (GP2D (KRAS G12D) cells) was 62 nM.
With Fc1ccc2cccc(-c3nc4c5c(nc(OCC6(CN7CC[C@H](OC(F)(F)F)C7)CC6)nc5c3F)N3C[C@H]5CC[C@H](N5)[C@H]3CC4)c2c1OC(F)(F)F [Example 125, (5aR,6S,9R)-1-fluoro-2-(7-fluoro-8-(trifluoromethoxy)naphthalen-1-yl)-12-((1-(((S)-3-(trifluoromethoxy)pyrrolidin-1-yl)methyl)cyclopropyl)methoxy)-4,5,5a,6,7,8,9,10-octahydro-3,10a,11,13,14-pentaaza-6,9-methanonaphtho[1,8-ab]heptalene] the IC50 (GDP-loaded KRAS G12D) was 417 nM and the EC50 (GP2D (KRAS G12D) cells) was 1000 nM.
C#Cc1c(F)ccc2cc(O)cc(-c3nc4c5c(nc(OC[C@@]67CCCN6[C@H](COC(=O)N(C)C(F)(F)F)CC7)nc5c3F)N3C[C@H]5CC[C@H](N5)[C@H]3CO4)c12 [Example 45, ((3S,7aS)-7a-((((5aS,6S,9R)-2-(8-ethynyl-7-fluoro-3-hydroxynaphthalen-1-yl)-1-fluoro-5a,6,7,8,9,10-hexahydro-5H-4-oxa-3,10a,11,13,14-pentaaza-6,9-methanonaphtho[1,8-ab]heptalen-12-yl)oxy)methyl)hexahydro-1H-pyrrolizin-3-yl)methyl methyl(trifluoromethyl)carbamate] was tested, and the IC50 (GDP-loaded KRAS G12D) was 0.3 nM and the EC50 (GP2D (KRAS G12D) cells) was 4 nM.
For C#Cc1c(F)ccc2cccc(-c3nc4c5c(nc(OC[C@@]67CCCN6[C@H](COc6ccnc(C(F)(F)F)n6)CC7)nc5c3F)N3C[C@H]5CC[C@H](N5)[C@H]3CC4)c12 [Example 151, (5aR,6S,9R)-2-(8-ethynyl-7-fluoronaphthalen-1-yl)-1-fluoro-12-(((3S,7aS)-3-(((2-(trifluoromethyl)pyrimidin-4-yl)oxy)methyl)tetrahydro-1H-pyrrolizin-7a(5H)-yl)methoxy)-4,5,5a,6,7,8,9,10-octahydro-3,10a,11,13,14-pentaaza-6,9-methanonaphtho[1,8-ab]heptalene], the IC50 (GDP-loaded KRAS G12D) was 0.1 nM and the EC50 (GP2D (KRAS G12D) cells) was 5 nM.
For C#Cc1c(F)ccc2cccc(-c3nc4c5c(nc(OC[C@@]67CCCN6C[C@H](F)C7)nc5c3F)N3C[C@H]5CC[C@H](N5)[C@@H]3[C@H](C)CC4)c12 [Example 159, (6R,6aS,7S,10R)-2-(8-ethynyl-7-fluoronaphthalen-1-yl)-1-fluoro-13-(((2R,7aS)-2-fluorotetrahydro-1H-pyrrolizin-7a(5H)-yl)methoxy)-6-methyl-5,6,6a,7,8,9,10,11-octahydro-4H-3,11a,12,14,15-pentaaza-7,10-methanocyclohepta[4,5]cycloocta[1,2,3-de]naphthalene], the IC50 (GDP-loaded KRAS G12D) was 100 nM and the EC50 (GP2D (KRAS G12D) cells) was 100 nM.
